This note sets out measurements from patent US20200384134A1, “IMAGING METHOD OF AMPA RECEPTORS IN BRAIN OF PRIMATE ORGANISM, PROGRAM, DIAGNOSTIC AGENT, COMPANION DIAGNOSTIC AGENT, DRUG, SCREENING METHOD, INPUT TERMINAL, SERVER AND SYSTEM” (Public University Corporation Yokohama City University, priority 2017, published 2020).

Series [1] has as its system WKY rat which was the depression model rat. Put plainly: Forced swimming test using rat. The note with it: FIG. 10. Type of series: in vivo. As to the method:
In a forced swimming test, AMPA receptor-binding compounds K-2 and K-4 were dissolved in 100% DMSO (Nacalai Tesque, Inc. Japan) so as to have a concentration of 2.1 mM, were diluted with saline immediately before being administered (15% DMSO, 320 μM) and were intravenously administered to the rat with an administered amount of 5 μl/weight (g) such that the administered amount fell within a range of 1 mg/kg to 1.5 mg/kg.
In all animal experiments, the deliberation and the approval of the animal experiment committee in Yokohama City University were received (approval number: F-A-15-051). As rats, adult male Wistar rats which were 6 to 10 weeks old and Wistar Kyoto rats (WKY rats) which were depression model rats (Charles River, Japan) were used. In order to acquire a route for the repeated administration of K-2, a jugular vein cannula indwelling surgery was performed a week before the experiment. The rat was made to fall sleep with isoflurane (DS Pharma Animal Health, Japan), and thereafter, while anesthesia was maintained at an isoflurane concentration of 1.5% (air 2 L/minute), the jugular vein cannula indwelling surgery was performed. The skin of a neck was incised about 3 cm such that subcutaneous fat was opened, and thus a jugular vein was exposed. […]

Another series has as its system AMPA receptors. Put plainly: AMPA receptor binding test (electrophysiological verification) in vitro. The format is cell-based. The settings on record: FIG. 5.
Series [2] relates to AMPA receptors in the brain. Put plainly: PET imaging in humans (healthy persons). The settings on record: about 370 MBq i.v. The format is in vivo, human. On the procedure: PET imaging was performed on two human subjects. […] Absorption correction CT imaging was performed for about one minute, and then [^11C] K-2 of about 370 MBq was administered, as a PET drug, intravenously over one minute. Thereafter, imaging was performed for 120 minutes. For the imaging, a PET/CT device “Aquiduo” (Toshiba Medical Systems Corporation) was used. In list data which was collected, dynamic images were reconstructed by an OS-EM method.
The reconstructed image was analyzed with the PMOD image analysis software (PMOD technologies) by integrating VOIs including a plurality of regions of frontal lobe, dentate cortex, hippocampus, amygdala, putamen, cerebellum, bridge and the like with one formed on a template MRI image. […]
The reconstructed image was analyzed with the PMOD image analysis software (PMOD technologies) by integrating VOIs including a plurality of regions of frontal lobe, dentate cortex, hippocampus, amygdala, putamen, cerebellum, bridge and the like with one formed on a template MRI image. As a calculation value used in quantitative determination, % SUV (% of standardized uptake value) was used. […]

Regarding `CN(C)C(=O)COc1c(F)cc(SCCN(C)S(=O)(=O)c2ccccc2)cc1F` [Compound K-4, {4-[2-(benzenesulfonyl-methyl-amino)-ethylsulfanil]-2,6-difluoro-phenoxy}-N,N-dimethyl-acetamide], the “immobile time, K-4 compared with K-2” value in series [1] (chronic administration, 1 mg/kg) is “significantly lowers the immobile time instead of K-2”. The “immobile time, chronic administration experiment” value in series [1] (i.v. for 7 days, 1 mg/kg to 1.5 mg/kg, compared with 15% DMSO) is reported as “significantly lowered”. Moreover, the “binding affinity to the AMPA receptors” value in the series on AMPA receptors was “indicated binding affinity”.

Regarding `[11CH3]N(CCSc1cc(F)c(OCC(N)=O)c(F)c1)S(=O)(=O)c1ccccc1` [[^11C] K-2, [4-[2-(benzenesulfonyl-[^11C]methyl-amino)-ethylsulfanyl]-2,6-difluorophenoxy]-acetamide], the “nonspecific accumulation caused by PET drug not bound to the AMPA receptors in the brain” value in series [2] (between 30 and 60 minutes after administration, two human subjects) is on record as “remarkably washed out”. Further, in series [2] (healthy men, average 50 to 120 minutes, FIG. 12), the “uptake into the brain” value was “high”.
